Measurements as given in publication PMC9090415, “Discovery of small molecule inhibitors of Plasmodium falciparum apicoplast DNA polymerase” (Journal of Enzyme Inhibition and Medicinal Chemistry, 2022).

Target: P. falciparum apicoplast DNA polymerase (Pf-apPOL) (Plasmodium falciparum, UniProt Q8ILY1)
Experiment: Fluorescence-based high-throughput DNA polymerase assay (molecular beacon), primary screen and dose-response;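 as to % inhibition ApPOL 90': test concentration in µM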;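 as to % inhibition apPOL 180': test concentration in µM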
Format: biochemical
How it was run: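 Single-point screening used 10 µM compound with 20 nM polymerase, 20 nM hairpin substrate and 6 µM dNTPs for 90 min at 25 °C. Confirmatory titrations (2.5–80 µM) followed fluorescence at three times, and IC50 was derived from a fit including a cooperativity term n.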

[1] = supplemental file 2, sheet IC50 nontoxic compounds; Pf-apPOL

Sequence of P. falciparum apicoplast DNA polymerase (Pf-apPOL) (Q8ILY1 entry or part of it): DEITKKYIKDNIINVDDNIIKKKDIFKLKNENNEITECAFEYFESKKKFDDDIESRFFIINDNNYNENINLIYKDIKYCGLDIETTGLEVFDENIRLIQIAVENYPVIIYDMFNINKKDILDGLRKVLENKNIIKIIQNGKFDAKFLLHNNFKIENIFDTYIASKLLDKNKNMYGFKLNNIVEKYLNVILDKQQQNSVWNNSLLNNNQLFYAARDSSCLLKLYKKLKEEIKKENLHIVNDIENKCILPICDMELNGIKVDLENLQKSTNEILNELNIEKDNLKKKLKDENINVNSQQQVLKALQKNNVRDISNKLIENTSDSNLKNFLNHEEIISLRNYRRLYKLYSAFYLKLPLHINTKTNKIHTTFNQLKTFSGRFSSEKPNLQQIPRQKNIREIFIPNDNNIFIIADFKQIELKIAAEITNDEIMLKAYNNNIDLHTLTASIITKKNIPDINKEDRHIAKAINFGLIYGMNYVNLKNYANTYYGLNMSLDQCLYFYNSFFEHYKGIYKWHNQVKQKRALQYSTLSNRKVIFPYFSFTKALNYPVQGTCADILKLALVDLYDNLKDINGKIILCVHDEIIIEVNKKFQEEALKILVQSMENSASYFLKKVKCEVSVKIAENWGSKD

O=C(O)c1nc(-c2ccccc2)nc2c1OCO2 [Molecule 45, OC(=O)c1nc(nc2c1OCO2)c1ccccc1]
% inhibition Apo pol 10' (DRC-1; concentration 2.5; 10'): 6.785%
% inhibition Apol 90' (DRC-1; concentration 2.5; 90'): -0.7182%
% inhibition apPOL 180' (DRC-1; concentration 2.5; 180'): -6.279%
% inhibition Apo pol 10' (DRC-1; concentration 5; 10'): 18.6858%
% inhibition Apol 90' (DRC-1; concentration 5; 90'): 2.776%
% inhibition apPOL 180' (DRC-1; concentration 5; 180'): -4.7971%
% inhibition Apo pol 10' (DRC-1; concentration 10; 10'): 46.4099%
% inhibition Apol 90' (DRC-1; concentration 10; 90'): 22.6615%
% inhibition apPOL 180' (DRC-1; concentration 10; 180'): 10.4504%
% inhibition Apo pol 10' (DRC-1; concentration 20; 10'): 71.5187%
% inhibition Apol 90' (DRC-1; concentration 20; 90'): 46.4112%
% inhibition apPOL 180' (DRC-1; concentration 20; 180'): 26.9983%
% inhibition Apo pol 10' (DRC-1; concentration 40; 10'): 89.2051%
% inhibition Apol 90' (DRC-1; concentration 40; 90'): 75.6472%
% inhibition apPOL 180' (DRC-1; concentration 40; 180'): 64.3043%
% inhibition Apo pol 10' (DRC-1; concentration 80 (unit not given); 10'): 95.8219%
% inhibition Apol 90' (DRC-1; concentration 80; 90'): 92.7909%
% inhibition apPOL 180' (DRC-1; concentration 80; 180'): 90.3482%
% inhibition Apol 40' (DRC-2; 40'; concentration 2.5): 7%
% inhibition Apol 40' (DRC-2; 40'; concentration 10): 34%
% inhibition Apol 40' (DRC-2; 40'; concentration 40): 69%
% inhibition ApPOL 90' (DRC-2; 90'; concentration 5): 7%
% inhibition ApPOL 90' (DRC-2; 90'; concentration 40): 69%
% inhibition apPOL 180' (DRC-2; 180'; concentration 20): 34%
% inhibition Apo pol 5' (DRC-2; concentration 2.5; 5'): 13%
% inhibition Apol 40' (DRC-2; concentration 2.5; 40'): 7%
% inhibition ApPOL 90' (DRC-2; concentration 2.5; 90'): 4%
% inhibition apPOL 180' (DRC-2; concentration 2.5; 180'): -1.61%
% inhibition Apo pol 5' (DRC-2; concentration 5; 5'): 24%
% inhibition Apol 40' (DRC-2; concentration 5; 40'): 14%
% inhibition ApPOL 90' (DRC-2; concentration 5; 90'): 7%
% inhibition apPOL 180' (DRC-2; concentration 5; 180'): -1.28%
% inhibition Apo pol 5' (DRC-2; concentration 10; 5'): 42%
% inhibition Apol 40' (DRC-2; concentration 10; 40'): 34%
% inhibition ApPOL 90' (DRC-2; concentration 10; 90'): 27%
% inhibition apPOL 180' (DRC-2; concentration 10; 180'): 17%
% inhibition Apo pol 5' (DRC-2; concentration 20; 5'): 50%
% inhibition Apol 40' (DRC-2; concentration 20; 40'): 51%
% inhibition ApPOL 90' (DRC-2; concentration 20; 90'): 45%
% inhibition apPOL 180' (DRC-2; concentration 20; 180'): 34%
% inhibition Apo pol 5' (DRC-2; concentration 40; 5'): 58%
% inhibition Apol 40' (DRC-2; concentration 40; 40'): 69%
% inhibition ApPOL 90' (DRC-2; concentration 40; 90'): 69%
% inhibition apPOL 180' (DRC-2; concentration 40; 180'): 68%
% inhibition Apo pol 5' (DRC-2; concentration 80; 5'): 60%
% inhibition Apol 40' (DRC-2; concentration 80; 40'): 77%
% inhibition ApPOL 90' (DRC-2; concentration 80; 90'): 80%
% inhibition apPOL 180' (DRC-2; concentration 80; 180'): 82%
DNA Pol (primary screen value of the 186 hits; unit not given; 90 min, 10 µM): 34
DNA Pol (primary screen value; head prints only 'DNA Pol'; 90 min, 10 µM): 34

O=C(O)c1nc(-c2ccccc2)nc2c1OCO2 [Molecule 45]
IC50 [1]: 11.2 µM

O=C(Cc1cc(=O)[nH]c(SCc2ccccc2)n1)Nc1ccc2c(c1)OCO2 [Molecule 46]
IC50 [1]: 15.5 µM

Cc1cccc2c(C(=O)NC(C)C)cc(N(C)C)nc12 [Molecule 47]
IC50 [1]: 15.9 µM

Cc1ccc(NC(=O)Cn2ccc3c(=O)[nH]ccc32)cc1F [Molecule 48]
IC50 [1]: 15.3 µM

COc1ccccc1CC(=O)N1CCc2c(nc3cc(-c4ccccc4Cl)[nH]n3c2=O)C1 [Molecule 49]
IC50 [1]: 12.5 µM

Cc1ccccc1NC(=O)Cn1ccc2c(=O)[nH]ccc21 [Molecule 50, O=C(Cn1ccc2c1cc[nH]c2=O)Nc1ccc(cc1)C]
DNA Pol ('DNA Pol' of the 186 hits list (screen value); 90 min, 10 µM): 47
% inhibition Apo pol 10' (DRC-1; 10'; conc 2.5): 6.138%
% inhibition Apo pol 10' (DRC-1; 10'; conc 5): 25.5303%
% inhibition Apo pol 10' (DRC-1; 10'; conc 10): 50.7772%
% inhibition Apo pol 10' (DRC-1; 10'; conc 20): 84.6667%
% inhibition Apo pol 10' (DRC-1; 10'; conc 40): 88.6284%
% inhibition Apo pol 10' (DRC-1; 10'; conc 80): 86.1182%
% inhibition Apol 90' (DRC-1; 90'; conc 2.5): 0%
% inhibition Apol 90' (DRC-1; 90'; conc 5): 12.4445%
% inhibition Apol 90' (DRC-1; 90'; conc 10): 34.9563%
% inhibition Apol 90' (DRC-1; 90'; conc 20): 76.8341%
% inhibition Apol 90' (DRC-1; 90'; conc 40): 88.9511%
% inhibition Apol 90' (DRC-1; 90'; conc 80): 91.6504%
% inhibition apPOL 180' (DRC-1; 180'; conc 2.5): -5.117%
% inhibition apPOL 180' (DRC-1; 180'; conc 5): 1.53%
% inhibition apPOL 180' (DRC-1; 180'; conc 10): 18.0817%
% inhibition apPOL 180' (DRC-1; 180'; conc 20): 64.1474%
% inhibition apPOL 180' (DRC-1; 180'; conc 40): 85.8042%
% inhibition apPOL 180' (DRC-1; 180'; conc 80): 93.6476%
% inhibition Apo pol 5' (DRC-2; 5'; conc 2.5): 8%
% inhibition Apo pol 5' (DRC-2; 5'; conc 5): 16%
% inhibition Apo pol 5' (DRC-2; 5'; conc 10): 39%
% inhibition Apo pol 5' (DRC-2; 5'; conc 20): 47%
% inhibition Apo pol 5' (DRC-2; 5'; conc 40): 49%
% inhibition Apo pol 5' (DRC-2; 5'; conc 80): 42%
% inhibition Apo pol 5' (DRC-2; 5'; concentration 5): 16%
% inhibition Apol 40' (DRC-2; 40'; conc 2.5): 5%
% inhibition Apol 40' (DRC-2; 40'; conc 5): 16%
% inhibition Apol 40' (DRC-2; 40'; conc 10): 44%
% inhibition Apol 40' (DRC-2; 40'; conc 20): 64%
% inhibition Apol 40' (DRC-2; 40'; conc 40): 70%
% inhibition Apol 40' (DRC-2; 40'; conc 80): 67%
% inhibition Apol 40' (DRC-2; 40'; concentration 5): 16%
% inhibition ApPOL 90' (DRC-2; 90'; conc 2.5): 0.827%
% inhibition ApPOL 90' (DRC-2; 90'; conc 5): 13%
% inhibition ApPOL 90' (DRC-2; 90'; conc 10): 41%
% inhibition ApPOL 90' (DRC-2; 90'; conc 20): 65%
% inhibition ApPOL 90' (DRC-2; 90'; conc 40): 75%
% inhibition ApPOL 90' (DRC-2; 90'; conc 80): 73%
% inhibition apPOL 180' (DRC-2; 180'; conc 2.5): -4%
% inhibition apPOL 180' (DRC-2; 180'; conc 5): 2.7%
% inhibition apPOL 180' (DRC-2; 180'; conc 10): 29%
% inhibition apPOL 180' (DRC-2; 180'; conc 20): 60%
% inhibition apPOL 180' (DRC-2; 180'; conc 40): 78%
% inhibition apPOL 180' (DRC-2; 180'; conc 80): 78%
% inhibition apPOL 180' (DRC-2; 180'; concentration 40): 78%
% inhibition apPOL 180' (DRC-2; 180'; concentration 80): 78%
DNA Pol (primary screen value, "DNA Pol"; 90 min, 10 µM): 47

Cc1ccc(NC(=O)Cn2ccc3c(=O)[nH]ccc32)cc1 [Molecule 50]
IC50 [1]: 13.7 µM

O=C(c1c[nH]c2ncccc12)N1CCCCCC1 [Molecule 51, O=C(c1c[nH]c2c1cccn2)N1CCCCCC1]
DNA Pol ('DNA Pol'; screening value, unit not given; 90 min, 10 µM): 25
% inhibition Apo pol 10' (DRC-1; 10'; concentration 2.5): 0.9621%
% inhibition Apo pol 10' (DRC-1; 10'; concentration 5): 3.05%
% inhibition Apo pol 10' (DRC-1; 10'; concentration 10): 7.159%
% inhibition Apo pol 10' (DRC-1; 10'; concentration 20): 44.6815%
% inhibition Apo pol 10' (DRC-1; 10'; concentration 40): 69.4342%
% inhibition Apo pol 10' (DRC-1; 10'; concentration 80): 66.9665%
% inhibition Apol 90' (DRC-1; 90'; concentration 2.5): 1.194%
% inhibition Apol 90' (DRC-1; 90'; concentration 5): 0.544%
% inhibition Apol 90' (DRC-1; 90'; concentration 10): 3.081%
% inhibition Apol 90' (DRC-1; 90'; concentration 20): 31.7125%
% inhibition Apol 90' (DRC-1; 90'; concentration 40): 60.4317%
% inhibition Apol 90' (DRC-1; 90'; concentration 80): 59.6767%
% inhibition apPOL 180' (DRC-1; 180'; concentration 2.5): -0.2836%
% inhibition apPOL 180' (DRC-1; 180'; concentration 5): -4.489%
% inhibition apPOL 180' (DRC-1; 180'; concentration 10): -1.621%
% inhibition apPOL 180' (DRC-1; 180'; concentration 20): 18.2058%
% inhibition apPOL 180' (DRC-1; 180'; concentration 40): 46.8298%
% inhibition apPOL 180' (DRC-1; 180'; concentration 80): 46.9776%
% inhibition Apo pol 5' (DRC-2, 5', concentration 2.5): 0.781%
% inhibition Apo pol 5' (DRC-2, 5', concentration 5): 2.7%
% inhibition Apo pol 5' (DRC-2, 5', concentration 10): 24%
% inhibition Apo pol 5' (DRC-2, 5', concentration 20): 38%
% inhibition Apo pol 5' (DRC-2, 5', concentration 40): 34%
% inhibition Apo pol 5' (DRC-2, 5', concentration 80): 36%
% inhibition Apol 40' (DRC-2, 40', concentration 2.5): 4%
% inhibition Apol 40' (DRC-2, 40', concentration 5): 4.4%
% inhibition Apol 40' (DRC-2, 40', concentration 10): 28%
% inhibition Apol 40' (DRC-2, 40', concentration 20): 47%
% inhibition Apol 40' (DRC-2, 40', concentration 40): 45%
% inhibition Apol 40' (DRC-2, 40', concentration 80): 61%
% inhibition ApPOL 90' (DRC-2, 90', concentration 2.5): 2.81%
% inhibition ApPOL 90' (DRC-2, 90', concentration 5): 3.55%
% inhibition ApPOL 90' (DRC-2, 90', concentration 10): 25%
% inhibition ApPOL 90' (DRC-2, 90', concentration 20): 46%
% inhibition ApPOL 90' (DRC-2, 90', concentration 40): 45%
% inhibition ApPOL 90' (DRC-2, 90', concentration 80): 68%
% inhibition apPOL 180' (DRC-2, 180', concentration 2.5): -1%
% inhibition apPOL 180' (DRC-2, 180', concentration 5): -0.742%
% inhibition apPOL 180' (DRC-2, 180', concentration 10): 17%
% inhibition apPOL 180' (DRC-2, 180', concentration 20): 37%
% inhibition apPOL 180' (DRC-2, 180', concentration 40): 35%
% inhibition apPOL 180' (DRC-2, 180', concentration 80): 72%
% inhibition Apol 40' (conc 40 (unit not given); 40'; DRC-2): 45%
% inhibition ApPOL 90' (conc 40 (unit not given); 90'; DRC-2): 45%
DNA Pol (primary screen hit value, DNA Pol (186 hits); 90 min, 10 µM): 25
